Literature values in article PMC4840272 (Neoplasia (New York, N.Y.), 2016).

Conditions: cited from earlier work

Cn1c(CCCC(=O)O)nc2cc(N(CCCl)CCCl)ccc21 [bendamustine]
elimination t1/2: approximately 40 minutes
